Results taken from patent publication US20210361774A1, “DEGRADERS OF WILD-TYPE AND MUTANT FORMS OF LRRK2” (DANA-FARBER CANCER INSTITUTE, INC., priority 2018, published 2021).

How the values were obtained:
[1] = target: T1, LRRK2 wt (Homo sapiens, UniProt Q5S007); assay: IC50 experiments, Invitrogen Adapta assay, LRRK2 wt; assay type: biochemical
T1 construct: purchased Invitrogen
Experimental: (§1) IC50 experiments were performed using Invitrogen™'s Adapta™ assay.

[2] = target: T2, LRRK2 G2019S (Homo sapiens, UniProt Q5S007, G2019S); assay: IC50 experiments, Invitrogen Adapta assay, LRRK2 G2019S; assay type: biochemical
T2 construct: purchased Invitrogen
T2 sequence (Q5S007 whole entry G2019S): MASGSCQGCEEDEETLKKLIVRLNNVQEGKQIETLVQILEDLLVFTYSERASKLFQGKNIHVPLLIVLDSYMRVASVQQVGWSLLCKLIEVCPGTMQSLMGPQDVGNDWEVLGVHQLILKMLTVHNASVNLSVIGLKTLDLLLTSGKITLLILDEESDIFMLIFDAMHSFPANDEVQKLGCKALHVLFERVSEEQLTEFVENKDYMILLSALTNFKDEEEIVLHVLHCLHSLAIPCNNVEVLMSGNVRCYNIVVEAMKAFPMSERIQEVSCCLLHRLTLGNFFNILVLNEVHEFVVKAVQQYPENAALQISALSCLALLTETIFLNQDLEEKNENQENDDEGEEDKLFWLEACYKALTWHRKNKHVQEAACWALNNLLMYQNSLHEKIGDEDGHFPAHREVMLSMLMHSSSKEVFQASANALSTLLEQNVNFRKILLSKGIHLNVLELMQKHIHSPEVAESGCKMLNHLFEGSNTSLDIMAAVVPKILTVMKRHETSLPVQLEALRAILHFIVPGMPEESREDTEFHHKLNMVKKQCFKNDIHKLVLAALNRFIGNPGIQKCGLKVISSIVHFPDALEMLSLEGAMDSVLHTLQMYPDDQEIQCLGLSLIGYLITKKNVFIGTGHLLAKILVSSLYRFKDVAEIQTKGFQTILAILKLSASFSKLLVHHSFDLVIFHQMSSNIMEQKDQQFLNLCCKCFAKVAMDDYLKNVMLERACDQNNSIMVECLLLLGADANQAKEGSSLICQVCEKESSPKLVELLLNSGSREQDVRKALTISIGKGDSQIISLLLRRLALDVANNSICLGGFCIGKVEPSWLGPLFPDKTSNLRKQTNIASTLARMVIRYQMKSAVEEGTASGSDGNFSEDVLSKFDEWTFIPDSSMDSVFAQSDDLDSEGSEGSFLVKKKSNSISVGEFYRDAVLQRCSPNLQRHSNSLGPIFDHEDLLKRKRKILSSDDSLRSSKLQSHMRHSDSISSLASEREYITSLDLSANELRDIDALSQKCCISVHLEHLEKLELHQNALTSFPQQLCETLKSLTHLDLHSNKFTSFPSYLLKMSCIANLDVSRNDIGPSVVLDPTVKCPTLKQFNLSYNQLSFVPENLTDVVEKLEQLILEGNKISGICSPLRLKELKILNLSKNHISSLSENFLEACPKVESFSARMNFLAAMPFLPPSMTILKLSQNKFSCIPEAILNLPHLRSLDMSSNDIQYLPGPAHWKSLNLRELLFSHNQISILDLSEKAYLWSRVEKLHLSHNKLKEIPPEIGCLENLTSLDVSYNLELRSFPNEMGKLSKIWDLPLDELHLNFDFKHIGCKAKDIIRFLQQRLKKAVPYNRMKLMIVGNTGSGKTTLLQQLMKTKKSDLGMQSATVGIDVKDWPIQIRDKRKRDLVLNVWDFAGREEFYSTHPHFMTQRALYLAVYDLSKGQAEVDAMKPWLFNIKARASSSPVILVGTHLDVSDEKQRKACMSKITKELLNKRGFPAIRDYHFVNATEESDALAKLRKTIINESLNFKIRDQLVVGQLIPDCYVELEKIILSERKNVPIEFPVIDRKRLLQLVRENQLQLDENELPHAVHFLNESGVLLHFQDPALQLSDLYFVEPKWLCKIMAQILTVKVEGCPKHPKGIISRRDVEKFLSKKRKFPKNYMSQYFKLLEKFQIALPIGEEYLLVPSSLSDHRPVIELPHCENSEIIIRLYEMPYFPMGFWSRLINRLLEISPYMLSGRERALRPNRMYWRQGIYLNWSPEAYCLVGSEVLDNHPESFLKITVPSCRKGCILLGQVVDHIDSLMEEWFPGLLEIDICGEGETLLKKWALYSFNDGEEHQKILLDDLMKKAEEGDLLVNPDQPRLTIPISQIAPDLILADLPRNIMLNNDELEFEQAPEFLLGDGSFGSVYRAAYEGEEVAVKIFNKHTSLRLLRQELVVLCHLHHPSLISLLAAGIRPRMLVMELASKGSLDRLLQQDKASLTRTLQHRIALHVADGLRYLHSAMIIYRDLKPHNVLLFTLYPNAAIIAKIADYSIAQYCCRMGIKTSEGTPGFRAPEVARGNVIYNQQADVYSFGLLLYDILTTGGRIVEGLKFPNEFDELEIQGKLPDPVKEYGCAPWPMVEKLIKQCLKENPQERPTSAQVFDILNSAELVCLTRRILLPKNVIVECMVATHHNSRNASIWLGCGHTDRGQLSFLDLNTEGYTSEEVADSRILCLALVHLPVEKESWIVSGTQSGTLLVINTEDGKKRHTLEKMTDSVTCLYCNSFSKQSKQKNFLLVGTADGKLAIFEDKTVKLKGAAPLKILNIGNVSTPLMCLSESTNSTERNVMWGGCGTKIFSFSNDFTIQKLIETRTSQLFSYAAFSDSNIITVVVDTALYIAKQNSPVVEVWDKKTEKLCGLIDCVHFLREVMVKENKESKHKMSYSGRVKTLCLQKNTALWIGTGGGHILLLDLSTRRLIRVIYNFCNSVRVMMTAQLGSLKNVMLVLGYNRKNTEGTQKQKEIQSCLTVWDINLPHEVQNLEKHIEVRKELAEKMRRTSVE
Experimental: as §1

[3] = test system: LRRK2; assay: Cellular degradation of LRRK2, Western blot in MEFs; assay type: cell-based, Mouse; conditions: Western blot, time course, 0 nM-1000 nM
Experimental: (§2) Cell lines used: Mouse embryonic fibroblast (MEF) WT, LRRK2 homozygous knock-ins in MEFs [R1441C; VPS35N(D620N); G2019S].
(§3) Tested concentration of LRRK2 degraders: 0 nM, 10 nM, 30 nM, 100 nM, 300 nM, 1000 nM. Additional concentrations tested for inventive compound 3: 2 uM, 5 uM and 10 uM.
(§4) Complete growth medium: DMEM supplemented with: 10% Fetal Bovine Serum; 1% pen/strep; 1% L-Glutamine; 1% MEM Non-essential Amino Acid Solution; 1% sodium pyruvate.
(§5) Commercial and in-house purified antibodies: • (a) Mouse anti-LRRK2/Dardarin antibody from Antibodies, Inc. (Cat #75-253). • (b) Rabbit monoclonal antibodies for total LRRK2 (UDD3) and pS935-LRRK2 (UDD2) were purified at the University of Dundee (as described in Dzamko et al., PLoS One 7(6): e39132 (2012). • (c) Loading controls: anti-α-tubulin (Cell Signaling Technology #5174); anti-GAPDH (Santa Cruz Biotechnology Cat. #sc-32233) • (d) (p)Rab10 antibodies: rabbit anti-RAB10 (phospho T73) antibody [MJF-R21] (ab230261); mouse MJFF-total Rab10 monoclonal antibody were generated by nanoTools (www.nanotools.de); rabbit Rab10 total was from Cell Signaling Technology (Rab10 (D36C4) XP® Rabbit mAb #8127)
(§6) Treatment: WT MEF, R1441C, VPS35N and G2019S mutants' cells were plated at equal density into 6-well plates in a final volume of 3 mL of complete growth medium/well. Degraders were reconstituted in DMSO and used at 1:1000 in cells i.e. 3 μl/3 ml. Treatment began when cells were >60% confluent, starting from a 48-hour time point, followed by a 24-hour time point, a 6-hour time point and finally a 1-hour time point.
(§7) Cell lysis: Media were aspirated, plates were placed on ice and cells were washed with Dulbecco's phosphate-buffered saline (DPBS). Fifty microliters of an ice-cold lysis buffer containing 50 mM Tris-HCl, pH 7.5, 1% (v/v) Triton X-100, 1 mM ethylene glycol-bis(μ-aminoethyl ether)-N,N,N′,N′-tetraacetic acid (EGTA), 1 mM sodium orthovanadate, 50 mM NaF, 0.1% (v/v) 2-mercaptoethanol, 10 mM 2-glycerophosphate, 5 mM sodium pyrophosphate, 0.1 μg/ml microcystin-LR (Enzo Life Sciences), 270 mM sucrose and complete EDTA-free protease inhibitor cocktail (Sigma-Aldrich Cat #11836170001) was added per well. Lysates were centrifuged at 20,817 g (14,000 rpm) for 15 min at 4° C. and supernatants were used to determine protein concentration using Bradford assay (Pierce™ Coomassie (Bradford) Protein Assay Kit, Thermo Scientific™ Cat #23200) and for Western blot analysis.
(§8) Western blot analysis: Cell lysates were mixed with 4× SDS-PAGE sample buffer [50 mM Tris-HCl, pH 6.8, 2% (w/v) SDS, 10% (v/v) glycerol, 0.02% (w/v) Bromophenol Blue and 1% (v/v) 2-mercaptoethanol] to a final total protein concentration of 1 μg/μl and heated at 95° C. for 5 minutes. Twenty micrograms of samples were loaded onto NuPAGE™ 4-12% Bis-Tris gradient gels (Life Technologies) along with 3 μl of BIO-RAD protein marker (Precision Plus Protein™ All Blue Prestained Protein Standards #1610373 kDa), gels were run in duplicates at 110V for 2 hours and 30 minutes with the NuPAGE™ MOPS SDS running buffer (Life Technologies, Cat #NP0001-02). After electrophoresis, the separated proteins were transferred onto the nitrocellulose membrane (GE Healthcare, Amersham Protran 0.45 μm NC) at 90 V for 90 minutes. Transferred membranes were briefly stained with Ponceau S stain and divided into 3 strips, as described earlier in Fan et al., Biochem. J. 475:23-44 (2018). Briefly, upper strip was cut from the top of the membrane to 75 kDa, middle strip cut was between 75 kDa—30 kDa and bottom strip cut was from 30 kDa—to the bottom of the membrane. Membrane strips were blocked at room temperature with 5% (w/v) dried skimmed milk dissolved in TBS-T [20 mM Tris-HCl, pH 7.5, 150 mM NaCl and 0.1% (v/v) Tween® 20] for 1 hour, washed four times with ten minutes intervals in TBS-T and incubated with primary antibodies diluted in 5% BSA (bovine serum albumin) in TBS-T overnight at 4° C. […]

[4] = test system: LRRK2 pS935; assay: Inhibition of phosphorylation of S935, Western blot in MEFs; assay type: cell-based, Mouse; conditions: Western blot, time course, 0 nM-1000 nM
Experimental: as §2, §3, §4, §5, §6, §7, §8

[5] = test system: Rab10 (phospho T73); assay: Inhibition of phosphorylation of Rab10, Western blot in MEFs; assay type: cell-based, Mouse; conditions: Western blot, time course, 0 nM-1000 nM
Experimental: as §2, §3, §4, §5, §6, §7, §8

[6] = target: T3, LRRK2 R1441C homozygous knock-in MEFs (Mus musculus, UniProt Q5S006, R1441C); assay: Cellular degradation of LRRK2 in R1441C homozygous cells, Western blot; assay type: cell-based; conditions: R1441C homozygous cells (FIG. 3B), time course, 0 nM-1000 nM
T3 construct: endogenous in cells; host or cells: LRRK2 R1441C homozygous knock-in MEFs
T3 sequence (Q5S006 whole entry R1441C): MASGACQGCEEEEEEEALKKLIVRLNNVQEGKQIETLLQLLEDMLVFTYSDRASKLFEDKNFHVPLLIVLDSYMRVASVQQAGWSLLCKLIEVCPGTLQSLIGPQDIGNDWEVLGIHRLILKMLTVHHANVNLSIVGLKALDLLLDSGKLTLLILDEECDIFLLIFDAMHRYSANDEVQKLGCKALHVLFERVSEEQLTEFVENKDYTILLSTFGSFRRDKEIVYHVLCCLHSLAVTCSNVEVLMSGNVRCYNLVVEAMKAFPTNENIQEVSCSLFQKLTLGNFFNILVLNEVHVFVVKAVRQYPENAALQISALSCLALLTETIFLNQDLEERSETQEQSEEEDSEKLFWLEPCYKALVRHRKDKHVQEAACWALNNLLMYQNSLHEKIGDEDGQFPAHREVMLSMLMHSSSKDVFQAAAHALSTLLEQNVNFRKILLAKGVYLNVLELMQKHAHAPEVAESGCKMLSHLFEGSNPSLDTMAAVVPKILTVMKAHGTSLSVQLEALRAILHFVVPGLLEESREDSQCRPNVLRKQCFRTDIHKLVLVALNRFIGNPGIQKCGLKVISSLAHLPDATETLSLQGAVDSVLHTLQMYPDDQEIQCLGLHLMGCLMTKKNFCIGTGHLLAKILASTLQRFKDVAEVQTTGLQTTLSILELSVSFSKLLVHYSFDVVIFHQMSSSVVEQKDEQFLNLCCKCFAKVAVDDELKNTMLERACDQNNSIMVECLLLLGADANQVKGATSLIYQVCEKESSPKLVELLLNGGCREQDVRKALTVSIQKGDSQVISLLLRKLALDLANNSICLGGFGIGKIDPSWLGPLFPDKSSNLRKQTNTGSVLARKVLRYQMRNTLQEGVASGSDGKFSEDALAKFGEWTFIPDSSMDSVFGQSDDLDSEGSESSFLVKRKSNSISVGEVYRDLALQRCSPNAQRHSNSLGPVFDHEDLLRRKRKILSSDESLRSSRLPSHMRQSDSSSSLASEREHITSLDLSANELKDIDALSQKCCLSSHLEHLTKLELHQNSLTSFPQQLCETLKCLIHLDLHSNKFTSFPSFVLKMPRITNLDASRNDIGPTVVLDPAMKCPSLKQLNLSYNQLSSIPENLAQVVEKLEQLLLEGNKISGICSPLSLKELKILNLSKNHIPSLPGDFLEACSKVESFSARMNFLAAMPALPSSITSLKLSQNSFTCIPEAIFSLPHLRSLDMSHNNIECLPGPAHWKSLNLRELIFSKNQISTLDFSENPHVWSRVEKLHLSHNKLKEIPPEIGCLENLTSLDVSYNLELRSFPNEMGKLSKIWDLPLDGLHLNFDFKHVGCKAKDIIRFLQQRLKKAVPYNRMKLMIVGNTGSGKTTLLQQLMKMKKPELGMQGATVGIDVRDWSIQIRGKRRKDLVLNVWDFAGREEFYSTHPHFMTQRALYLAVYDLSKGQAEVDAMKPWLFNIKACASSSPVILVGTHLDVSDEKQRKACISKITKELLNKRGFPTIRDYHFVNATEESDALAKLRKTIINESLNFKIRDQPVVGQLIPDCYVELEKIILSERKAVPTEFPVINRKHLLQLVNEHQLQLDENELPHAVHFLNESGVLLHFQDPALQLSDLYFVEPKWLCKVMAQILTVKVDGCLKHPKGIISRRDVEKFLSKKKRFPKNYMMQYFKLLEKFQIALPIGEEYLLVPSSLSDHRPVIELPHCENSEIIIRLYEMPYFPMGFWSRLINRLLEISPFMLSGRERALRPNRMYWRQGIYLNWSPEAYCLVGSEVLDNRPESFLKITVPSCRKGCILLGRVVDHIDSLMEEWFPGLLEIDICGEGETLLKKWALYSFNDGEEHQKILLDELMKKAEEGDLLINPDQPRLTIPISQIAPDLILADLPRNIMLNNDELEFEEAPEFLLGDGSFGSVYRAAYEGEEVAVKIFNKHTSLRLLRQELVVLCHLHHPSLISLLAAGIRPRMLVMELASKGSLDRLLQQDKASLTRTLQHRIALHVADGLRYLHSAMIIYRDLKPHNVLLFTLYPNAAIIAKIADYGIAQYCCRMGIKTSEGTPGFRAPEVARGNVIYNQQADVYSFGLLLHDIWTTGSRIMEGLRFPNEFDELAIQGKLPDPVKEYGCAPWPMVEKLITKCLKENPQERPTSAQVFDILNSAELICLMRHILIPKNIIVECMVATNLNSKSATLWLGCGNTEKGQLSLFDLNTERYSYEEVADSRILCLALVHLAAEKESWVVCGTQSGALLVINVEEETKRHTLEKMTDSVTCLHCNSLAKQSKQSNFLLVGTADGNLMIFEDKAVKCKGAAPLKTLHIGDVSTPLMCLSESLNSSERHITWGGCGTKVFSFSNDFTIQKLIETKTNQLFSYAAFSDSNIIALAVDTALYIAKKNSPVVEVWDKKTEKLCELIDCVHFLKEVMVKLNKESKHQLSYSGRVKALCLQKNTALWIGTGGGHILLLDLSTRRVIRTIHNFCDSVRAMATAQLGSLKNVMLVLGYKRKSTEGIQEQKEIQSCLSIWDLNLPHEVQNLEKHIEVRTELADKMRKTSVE
Experimental: as §2, §3, §4, §5
Treatment: WT MEF, R1441C, VPS35N and G2019S mutants' cells were plated at equal density into 6-well plates in a final volume of 3 mL of complete growth medium/well. Degraders were reconstituted in DMSO and used at 1:1000 in cells i.e. 3 μl/3 ml. […]

T1 sequence (Q5S007 whole entry): as the sequence (Q5S007 whole entry G2019S) above, with S2019G counted along it

## CNc1nc(Nc2ccc(C(=O)N3CCN(C(=O)CCCCCCCCOc4cccc5c4C(=O)N(C4CCC(=O)NC4=O)C5=O)CC3)cc2OC)ncc1C(F)(F)F (stereo not drawn) [Compound 3, 2-(2,6-dioxopiperidin-3-yl)-4-((9-(4-(3-methoxy-4-((4-(methylamino)-5-(trifluoromethyl)pyrimidin-2-yl)amino)benzoyl)piperazin-1-yl)-9-oxononyl)oxy)isoindoline-1,3-dione]
[1]
  IC50: 2 nM
[2]
  IC50: 1 nM
[3]
  degradation of LRRK2 (total level): did not degrade
[4]
  inhibition of phosphorylation of S935: inhibited
[5]
  inhibition of phosphorylation of Rab10: inhibited
[6]
  degradation of LRRK2 (C-terminus): observed
